Measurements taken from PubChem BioAssay (NCI).
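Growth conditions: 96-well plates. Treatment: test compound, 48 hours, 5 concentrations. Analysis: linear interpolation between bracketing concentrations; unreached endpoints set to highest concentration. TGI denotes the concentration required for complete inhibition of growth.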

Tests used:
Assay in all cases: NCI anticancer screen, dose series, 48 h
786-0 renal = tested on: 786-0 renal
A549 NSCLC = tested on: A549 NSCLC
ACHN renal = tested on: ACHN renal
CAKI-1 renal = tested on: CAKI-1 renal
CCRF-CEM leukemia = tested on: CCRF-CEM leukemia
COLO 205 colon = tested on: COLO 205 colon
DLD-1 colon = tested on: DLD-1 colon
DMS 114 small cell lung = tested on: DMS 114 small cell lung
EKVX NSCLC = tested on: EKVX NSCLC
HCT-116 colon = tested on: HCT-116 colon
HCT-15 colon = tested on: HCT-15 colon
HL-60(TB) leukemia = tested on: HL-60(TB) leukemia
HOP-18 NSCLC = tested on: HOP-18 NSCLC
HOP-62 NSCLC = tested on: HOP-62 NSCLC
HOP-92 NSCLC = tested on: HOP-92 NSCLC
HT29 colon = tested on: HT29 colon
IGROV1 ovarian = tested on: IGROV1 ovarian
K-562 leukemia = tested on: K-562 leukemia
KM12 colon = tested on: KM12 colon
KM20L2 colon = tested on: KM20L2 colon
LXFL 529 NSCLC = tested on: LXFL 529 NSCLC
M14 melanoma = tested on: M14 melanoma
M19-MEL melanoma = tested on: M19-MEL melanoma
MALME-3M melanoma = tested on: MALME-3M melanoma
MOLT-4 leukemia = tested on: MOLT-4 leukemia
NCI-H226 lung = tested on: NCI-H226 lung
NCI-H23 lung = tested on: NCI-H23 lung
NCI-H460 lung = tested on: NCI-H460 lung
NCI-H522 lung = tested on: NCI-H522 lung
OVCAR-3 ovarian = tested on: OVCAR-3 ovarian
OVCAR-4 ovarian = tested on: OVCAR-4 ovarian
OVCAR-8 ovarian = tested on: OVCAR-8 ovarian
RPMI-8226 leukemia = tested on: RPMI-8226 leukemia
RXF 393 renal = tested on: RXF 393 renal
RXF-631 renal = tested on: RXF-631 renal
SF-268 CNS = tested on: SF-268 CNS
SF-295 CNS = tested on: SF-295 CNS
SF-539 CNS = tested on: SF-539 CNS
SK-MEL-2 melanoma = tested on: SK-MEL-2 melanoma
SK-MEL-28 melanoma = tested on: SK-MEL-28 melanoma
SK-MEL-5 melanoma = tested on: SK-MEL-5 melanoma
SK-OV-3 ovarian = tested on: SK-OV-3 ovarian
SN12C renal = tested on: SN12C renal
SNB-19 CNS = tested on: SNB-19 CNS
SNB-75 CNS = tested on: SNB-75 CNS
SR leukemia = tested on: SR leukemia
SW-620 colon = tested on: SW-620 colon
TK-10 renal = tested on: TK-10 renal
U251 CNS = tested on: U251 CNS
UACC-257 melanoma = tested on: UACC-257 melanoma
UACC-62 melanoma = tested on: UACC-62 melanoma
UO-31 renal = tested on: UO-31 renal
XF 498 CNS = tested on: XF 498 CNS

Measured: TGI

O=C(O)C1=CN=C(C(=O)O)NN1
> 100 µM: all assays above
